Legend:
DRG neurons = test: Spiking of DRG neurons on MEAs in the central chamber of the neu-microJoint bioreactor in response to KCl; assay type: cell-based; settings: 30 mM KCl; DRG neurons cultured on MEAs for 4 days; screened with 10, 30 and 50 mM; little to no spontaneous activity at baseline
Experimental: Acutely dissociated DRG neurons are plated in the neural chamber and cultured in 2D at a density of […] to enable recording of neural activity, for example with microelectrodes or MEAs embedded in the floor of the chamber.
To enable recording of neural activity, sensory neurons are plated on a high-density microelectrode array (MEA) embedded in the floor of the neuron bioreactor chamber. Additionally, over the course of 28 days, the neurites reach the synovium, bone, and adipose chambers. In addition, they are functional, as assessed by the ability to maintain physiological cytosolic Ca^2+ concentrations (˜100 nM), a healthy resting membrane potential <−50 mV, and overshooting action potentials in response to physiological stimuli.
DRG neurons cultured on MEAs for 4 days in the central chamber of the neu-microJoint bioreactor were screened with increasing concentrations of KCl (10, 30, and 50 mM) to detect spiking.

sensory neurons = test: Sensitization of sensory neurons in fura-2 Ca2+ imaging and whole cell patch recordings; assay type: cell-based
Text: Macrophages can be added to any of the tissue scaffolds in the bioreactor to assess their contribution to joint pain modeled by the neu-microJoint bioreactor. M1 macrophages are a classically activated pro-inflammatory cell type that express pro-inflammatory cytokines, chemokines and many other substances. M2 macrophages are alternatively activated and have an anti-inflammatory pro-tissue regenerative phenotype.

[1] = tested on: cartilage (in the upper part of the bone/cartilage chamber); test: IL1β OA model in the neu-microJoint bioreactor: mRNA expression in cartilage; assay type: cell-based, human; settings: IL1β applied to the synovium flow only; cartilage not directly exposed; 10 ng/mL for 1 week
Text: For the tissue scaffolds containing synovial cells, adipose cells, chondrocytes, or osteocytes, human mesenchymal stem cells (MSCs, >98% positive to CD73, 90, 105 and >99% negative to CD31, 34, 45, capable of colony formation and trilineage differentiation) or human iPSCs-derived MSCs (iMPCs) are encapsulated in photo-crosslinked gelatin scaffolds, and then subjected to tissue specific media to generate individual synovium, adipose, osteochondral tissues, as well as an additional individual macrophage component. After maturation, these tissue constructs are assembled with the chamber body inserts as described herein and inserted into the outer chambers of the neu-microJoint bioreactor, the fluid conduits are tapped and connected to suitable tubing, and tissue culture medium is pumped through the device to perfuse the tissue scaffolds. […]
Since IL1β that is used to generate the OA model is only applied to the flow of synovium, it indirectly stimulates the other tissues. […] As this may be part of the OA process, retrograde tracers may be used to distinguish activity in neurons innervating the synovium chamber from those innervating other chambers, and corresponding neural activity is monitored.

Molecule | sensitization of sensory neurons (sensory neurons) | also measured
[Cl-].[K+] [KCl] | – | spiking activity of DRG neurons (DRG neurons): activity was detected
tumor necrosis factor (TNF)-α | sensitize sensory neurons | –
IL1β: cytokine used to trigger OA conditions in the outer chambers | – | ADAMTS 4 mRNA expression in cartilage [1]: significant increases; MMP13 mRNA expression in cartilage [1]: significant increases
IL-6: factor generated by M1 macrophages; cytokine | sensitize sensory neurons | –
CCCCC[C@H](O)/C=C/[C@H]1[C@H](O)CC(=O)[C@@H]1C/C=C\CCCC(=O)O [PGE2, prostaglandin E2] | sensitize sensory neurons | –
